Measurements taken from patent US9273285B1, “Shorter colony-forming cell assay” (STEMCELL TECHNOLOGIES INC., priority 2008, dated 2016).

B1: FLT-3 Ligand (protein, UniProt P49771 27-235, looked up)
Fms-related tyrosine kinase 3 …: TQDCSFQHSPISSDFAVKIRELSDYLLQDYPVTVASNLQDEELCGGLWRLVLAQRWMERLKTVAGSKMQGLLERVNTEIHFVTKCAFQPPPSCLRFVQTNISRLLQETSEQLVALKPWITRQNFSRCLELQCQPDSSTLPPPWSPRPLEATAPTAPQPPLLLLLLLPVGLLLLAAAWCLHWQRTRRRTPRPGEQVPPVPSPQDLLLVEH
notes: cytokine added to the culture medium

System: Human CB mononuclear cells
Test: Hematopoietic colony-forming cell (CFC) assay in methylcellulose-based MethoCult media
Set-up: key to Size, Morphology ranking: Ranking on the basis of colony size and morphology: 1 is best; 4 is worst
Conditions: for Colony numbers as percentage of colony numbers in medium without extra cytokines, Average: average of experiments
Description: Frozen ficolled cord blood mononuclear cells were thawed, nucleated cells were counted by microscopy using a hemacytometer after dilution in 3% acetic acid to lyse mature erythrocytes. The cells were diluted with Iscove's MDM to 10-fold the desired cell concentration. 0.4 mL of the cell suspensions were added into an aliquot of test MethoCult® medium (4 mL) and mixed by vortexing. 1.1 mL of each cell/medium mixture was dispensed into triplicate 35 mm culture dishes using 3 mL syringes with blunt end needles, with 1.1 mL of medium per dish. All cultures were incubated for 4, 7, 10 or the standard 14 days at 37° C., 5% CO2, 100% humidity. Colonies were enumerated and classified by bright-field microscopy into the following categories based on size and morphology: CFU-E, BFU-E, CFU-GM, CFU-GEMM (StemCell Technologies, Colony Atlas). […]
Methocult® H4435 medium, which contains the 6 cytokines IL-3, IL-6, SCF, GM-CSF, G-CSF and EPO, was supplemented with Zinc Sulphate at final concentrations 2, 10 and 20 μM and 4 different CB samples were cultured for 7 and 14 days as described in Example 1. […] In one experiment, CFU-GM colonies were larger in the presence of zinc, whereas BFU-E colony size was unchanged.
To examine if adding extra cytokines can further increase colony growth, culture medium as in Example 5 was supplemented with FL, TPO or both. Cultures were set up using Cord Blood cells and colonies were counted after 7 and 14 days. […] In three of the four experiments colony size and morphology after 14 days were very similar whether or not TPO and/or FL were present in the medium. In one experiment (Exp 4 in Table 2) colonies were slightly larger in cultures without TPO and FL compared to cultures with TPO and FL. […]

[1] = Exp. 1, 7 days, added to MethoCult medium with IL-3, IL-6, G-CSF, GM-CSF, SCF, EPO, cord blood

Molecule	Colony numbers as percentage of colony numbers in medium without extra cytokines (Exp. 1, 7 days) [%]	Size, Morphology ranking (Exp. 1, 7 days)	Colony numbers per 10^5 cells plated [1] [per 10^5 cells plated]	Colony numbers as percentage of colony numbers in medium without extra cytokines (Exp. 1, 14 days) [%]	Colony numbers per 10^5 cells plated (Exp. 1, 14 days) [per 10^5 cells plated]	Size, Morphology ranking (Exp. 1, 14 days)	Colony numbers as percentage of colony numbers in medium without extra cytokines (Exp. 2, 7 days) [%]	Colony numbers per 10^5 cells plated (Exp. 2, 7 days) [per 10^5 cells plated]	Size, Morphology ranking (Exp. 2, 7 days)	Colony numbers as percentage of colony numbers in medium without extra cytokines (Exp. 2, 14 days) [%]	Colony numbers per 10^5 cells plated (Exp. 2, 14 days) [per 10^5 cells plated]	Size, Morphology ranking (Exp. 2, 14 days)	Colony numbers as percentage of colony numbers in medium without extra cytokines (Exp. 3, 7 days) [%]	Colony numbers per 10^5 cells plated (Exp. 3, 7 days) [per 10^5 cells plated]	Size, Morphology ranking (Exp. 3, 7 days)	Colony numbers as percentage of colony numbers in medium without extra cytokines (Exp. 3, 14 days) [%]	Colony numbers per 10^5 cells plated (Exp. 3, 14 days) [per 10^5 cells plated]	Size, Morphology ranking (Exp. 3, 14 days)	Colony numbers as percentage of colony numbers in medium without extra cytokines, Average (7 days) [%]	Colony numbers as percentage of colony numbers in medium without extra cytokines, Average (14 days) [%]	also measured
O=S(=O)([O-])[O-].[Zn+2] [Zinc Sulphate]																					total colony numbers on day 7 and 14 relative to media containing no Zinc, or 2 μM of Zinc (10 or 20 μM in Methocult H4435, 4 CB samples (FIG. 4)): increased; Effect on colony size after 14 days of culture (in Methocult H4435, 3 of the 4 experiments): no effects of zinc on colony size was observed; Colony size and morphology on day 7 compared to zinc-free medium (in Methocult H4435, particularly at 10 and 20 uM, three of 4 experiments): the colonies were larger, and more evenly spread out
Thrombopoietin [TPO]	78	2	210	93	287	1	102	393	1	102	480	1	107	317	2	107	360	1	95	101	
B1	99	2	267	110	337	1	107	413	2	99	463	1	99	293	3	94	317	1	101	101	
